From ChEMBL document CHEMBL1201862, “PubChem BioAssay data set” (2004)
Calls of active or inactive are those of the source.

Tests used:
[1] = target: Acyl-homoserine lactone acylase PvdQ (Pseudomonas aeruginosa (strain LESB58), UniProt Q9I194); assay: PvdQ acylase enzyme activity blockers – biochemical, fluorescence, plate reader and imaging, cherry-picks, dose response (AID 493231)
[2] = target: T1, Heat shock factor protein 1 (Mus musculus, UniProt P38532); assay: decrease of HSF1-responsive luciferase luminescence – cell-based, NIH3T3, dose retest, confirmation (AID 2382); format: functional;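 note: NIH3T3 fibroblasts with HSF1-driven luciferase reporter stressed by proteasome inhibitor MG132; luminescence from HSF1-driven luciferase expression after 8 hours of MG132 stress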
T1 sequence (P38532 whole entry): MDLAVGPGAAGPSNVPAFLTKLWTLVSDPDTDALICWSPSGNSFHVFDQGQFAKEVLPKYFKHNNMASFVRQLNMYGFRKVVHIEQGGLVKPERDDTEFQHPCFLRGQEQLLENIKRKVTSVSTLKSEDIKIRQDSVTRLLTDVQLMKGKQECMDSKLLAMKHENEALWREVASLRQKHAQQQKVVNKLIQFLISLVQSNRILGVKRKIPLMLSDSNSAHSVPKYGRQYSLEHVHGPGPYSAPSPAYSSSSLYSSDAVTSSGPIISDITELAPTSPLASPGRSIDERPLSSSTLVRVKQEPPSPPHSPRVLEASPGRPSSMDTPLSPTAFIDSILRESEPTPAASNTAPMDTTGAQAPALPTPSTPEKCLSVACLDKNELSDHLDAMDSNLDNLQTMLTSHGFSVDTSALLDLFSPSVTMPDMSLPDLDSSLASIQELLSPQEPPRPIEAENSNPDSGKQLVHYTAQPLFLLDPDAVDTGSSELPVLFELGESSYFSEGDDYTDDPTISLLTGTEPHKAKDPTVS

Tumor necrosis factor = Tumor necrosis factor (Homo sapiens, UniProt P01375); assay: analog potency on TNFa NF-kB signaling – cell-based, revised, SAR follow-up (AID 2337); format: functional
Tumor necrosis factor, sequence (P01375 whole entry): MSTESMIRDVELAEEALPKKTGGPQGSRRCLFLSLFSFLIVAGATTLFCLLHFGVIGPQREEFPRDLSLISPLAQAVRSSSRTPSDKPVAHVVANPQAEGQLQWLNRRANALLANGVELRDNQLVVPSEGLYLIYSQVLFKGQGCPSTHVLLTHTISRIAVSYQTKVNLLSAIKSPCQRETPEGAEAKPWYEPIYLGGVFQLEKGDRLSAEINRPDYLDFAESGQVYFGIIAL

[3] = target: Cyclin-dependent kinase 5/CDK5 activator 1 (Homo sapiens, UniProt Q00535); assay: blockade of human CDK5 activity – biochemical, cherry-picked samples, set 2, dose response (AID 504545)
Cyclin-dependent kinase 5/CDK5 activator 1, sequence (Q00535 whole entry, the tested form may be a part): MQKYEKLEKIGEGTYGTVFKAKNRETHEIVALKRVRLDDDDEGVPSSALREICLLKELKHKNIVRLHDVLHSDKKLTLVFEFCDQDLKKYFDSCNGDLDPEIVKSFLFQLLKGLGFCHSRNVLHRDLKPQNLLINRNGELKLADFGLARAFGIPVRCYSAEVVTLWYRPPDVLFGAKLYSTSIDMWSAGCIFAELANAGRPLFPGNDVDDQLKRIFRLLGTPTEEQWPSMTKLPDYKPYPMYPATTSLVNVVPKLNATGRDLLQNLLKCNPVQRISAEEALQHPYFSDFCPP
Cyclin-dependent kinase 5/CDK5 activator 1, sequence (Q15078 whole entry, further chain, the tested form may be a part): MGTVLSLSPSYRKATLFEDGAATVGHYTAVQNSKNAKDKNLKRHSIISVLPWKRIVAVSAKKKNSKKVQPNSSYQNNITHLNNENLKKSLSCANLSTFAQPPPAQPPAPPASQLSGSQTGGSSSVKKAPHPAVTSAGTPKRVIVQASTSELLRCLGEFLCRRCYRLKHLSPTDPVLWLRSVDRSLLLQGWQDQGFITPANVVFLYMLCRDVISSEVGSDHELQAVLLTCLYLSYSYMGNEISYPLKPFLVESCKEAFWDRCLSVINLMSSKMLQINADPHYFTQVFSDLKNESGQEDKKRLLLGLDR

[4] = target: T2, Nucleotide-binding oligomerization domain-containing protein 1 (Homo sapiens, UniProt Q9Y239); assay: blockers of NOD1 pathway activity – revised, SAR follow-up (AID 2333); format: functional
T2 sequence (Q9Y239 whole entry): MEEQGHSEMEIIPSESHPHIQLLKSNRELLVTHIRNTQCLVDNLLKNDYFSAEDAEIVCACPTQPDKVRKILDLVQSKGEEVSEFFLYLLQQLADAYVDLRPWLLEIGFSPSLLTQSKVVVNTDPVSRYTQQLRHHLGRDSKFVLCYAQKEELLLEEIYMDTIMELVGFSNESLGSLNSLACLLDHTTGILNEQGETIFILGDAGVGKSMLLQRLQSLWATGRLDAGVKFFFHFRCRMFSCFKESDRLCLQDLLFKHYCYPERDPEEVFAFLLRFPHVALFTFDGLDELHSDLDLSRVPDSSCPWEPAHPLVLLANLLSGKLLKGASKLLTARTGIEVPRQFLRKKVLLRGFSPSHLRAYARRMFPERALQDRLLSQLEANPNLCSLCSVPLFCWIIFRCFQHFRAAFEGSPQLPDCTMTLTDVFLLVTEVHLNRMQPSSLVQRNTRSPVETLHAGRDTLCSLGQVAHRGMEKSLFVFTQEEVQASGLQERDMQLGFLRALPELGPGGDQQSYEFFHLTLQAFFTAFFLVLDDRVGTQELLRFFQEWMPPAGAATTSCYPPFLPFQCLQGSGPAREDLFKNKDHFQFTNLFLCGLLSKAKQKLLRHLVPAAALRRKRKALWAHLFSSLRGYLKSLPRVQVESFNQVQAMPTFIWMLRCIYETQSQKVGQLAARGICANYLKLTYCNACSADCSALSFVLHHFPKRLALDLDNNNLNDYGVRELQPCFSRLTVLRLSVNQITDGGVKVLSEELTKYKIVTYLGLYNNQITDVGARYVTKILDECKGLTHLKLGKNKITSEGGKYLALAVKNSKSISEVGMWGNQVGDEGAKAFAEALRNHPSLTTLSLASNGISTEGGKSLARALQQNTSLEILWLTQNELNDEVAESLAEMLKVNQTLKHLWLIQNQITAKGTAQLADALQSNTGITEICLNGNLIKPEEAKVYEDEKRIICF

[5] = target: Peroxisome proliferator-activated receptor gamma/Nuclear receptor corepressor 2 (Homo sapiens, UniProt P37231+Q9Y618); format: functional
[6] = target: Photoreceptor-specific nuclear receptor (Homo sapiens, UniProt Q9Y5X4); format: functional;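 note: potency for compounds that break the NR2E3 corepressor complex and count as activators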
Photoreceptor-specific nuclear receptor, sequence (Q9Y5X4 whole entry): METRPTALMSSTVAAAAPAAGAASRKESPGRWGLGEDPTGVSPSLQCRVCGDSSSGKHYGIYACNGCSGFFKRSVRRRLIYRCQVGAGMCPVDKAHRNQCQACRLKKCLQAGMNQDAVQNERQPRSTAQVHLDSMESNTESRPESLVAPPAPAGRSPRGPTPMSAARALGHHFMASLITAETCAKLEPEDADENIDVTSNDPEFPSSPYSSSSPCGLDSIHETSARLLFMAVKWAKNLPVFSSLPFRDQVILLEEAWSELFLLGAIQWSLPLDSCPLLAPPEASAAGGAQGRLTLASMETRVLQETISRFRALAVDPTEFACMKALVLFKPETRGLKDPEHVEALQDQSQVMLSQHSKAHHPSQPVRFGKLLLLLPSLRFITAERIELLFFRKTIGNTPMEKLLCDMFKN

[7] = target: Peroxisome proliferator-activated receptor gamma/Nuclear receptor coactivator 1 (Homo sapiens, UniProt P37231); format: functional;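 note: agonist potency as compounds enhance coactivator SRC-1 recruitment to PPARgamma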
Peroxisome proliferator-activated receptor gamma/Nuclear receptor coactivator 1, sequence (P37231 whole entry): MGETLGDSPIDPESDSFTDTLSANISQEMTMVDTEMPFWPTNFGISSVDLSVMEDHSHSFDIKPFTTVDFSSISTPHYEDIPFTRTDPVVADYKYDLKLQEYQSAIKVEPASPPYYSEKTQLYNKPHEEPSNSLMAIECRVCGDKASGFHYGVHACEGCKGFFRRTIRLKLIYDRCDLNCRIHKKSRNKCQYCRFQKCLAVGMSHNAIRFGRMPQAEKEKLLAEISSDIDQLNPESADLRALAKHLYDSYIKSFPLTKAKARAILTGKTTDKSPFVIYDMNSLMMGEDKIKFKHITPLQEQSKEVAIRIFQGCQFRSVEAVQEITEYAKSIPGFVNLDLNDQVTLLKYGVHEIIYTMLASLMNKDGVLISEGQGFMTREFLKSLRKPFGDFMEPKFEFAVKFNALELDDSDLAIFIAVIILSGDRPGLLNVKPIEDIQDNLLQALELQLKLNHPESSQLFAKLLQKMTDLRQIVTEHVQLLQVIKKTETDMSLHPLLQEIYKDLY
Peroxisome proliferator-activated receptor gamma/Nuclear receptor coactivator 1, sequence (Q15788 whole entry, further chain): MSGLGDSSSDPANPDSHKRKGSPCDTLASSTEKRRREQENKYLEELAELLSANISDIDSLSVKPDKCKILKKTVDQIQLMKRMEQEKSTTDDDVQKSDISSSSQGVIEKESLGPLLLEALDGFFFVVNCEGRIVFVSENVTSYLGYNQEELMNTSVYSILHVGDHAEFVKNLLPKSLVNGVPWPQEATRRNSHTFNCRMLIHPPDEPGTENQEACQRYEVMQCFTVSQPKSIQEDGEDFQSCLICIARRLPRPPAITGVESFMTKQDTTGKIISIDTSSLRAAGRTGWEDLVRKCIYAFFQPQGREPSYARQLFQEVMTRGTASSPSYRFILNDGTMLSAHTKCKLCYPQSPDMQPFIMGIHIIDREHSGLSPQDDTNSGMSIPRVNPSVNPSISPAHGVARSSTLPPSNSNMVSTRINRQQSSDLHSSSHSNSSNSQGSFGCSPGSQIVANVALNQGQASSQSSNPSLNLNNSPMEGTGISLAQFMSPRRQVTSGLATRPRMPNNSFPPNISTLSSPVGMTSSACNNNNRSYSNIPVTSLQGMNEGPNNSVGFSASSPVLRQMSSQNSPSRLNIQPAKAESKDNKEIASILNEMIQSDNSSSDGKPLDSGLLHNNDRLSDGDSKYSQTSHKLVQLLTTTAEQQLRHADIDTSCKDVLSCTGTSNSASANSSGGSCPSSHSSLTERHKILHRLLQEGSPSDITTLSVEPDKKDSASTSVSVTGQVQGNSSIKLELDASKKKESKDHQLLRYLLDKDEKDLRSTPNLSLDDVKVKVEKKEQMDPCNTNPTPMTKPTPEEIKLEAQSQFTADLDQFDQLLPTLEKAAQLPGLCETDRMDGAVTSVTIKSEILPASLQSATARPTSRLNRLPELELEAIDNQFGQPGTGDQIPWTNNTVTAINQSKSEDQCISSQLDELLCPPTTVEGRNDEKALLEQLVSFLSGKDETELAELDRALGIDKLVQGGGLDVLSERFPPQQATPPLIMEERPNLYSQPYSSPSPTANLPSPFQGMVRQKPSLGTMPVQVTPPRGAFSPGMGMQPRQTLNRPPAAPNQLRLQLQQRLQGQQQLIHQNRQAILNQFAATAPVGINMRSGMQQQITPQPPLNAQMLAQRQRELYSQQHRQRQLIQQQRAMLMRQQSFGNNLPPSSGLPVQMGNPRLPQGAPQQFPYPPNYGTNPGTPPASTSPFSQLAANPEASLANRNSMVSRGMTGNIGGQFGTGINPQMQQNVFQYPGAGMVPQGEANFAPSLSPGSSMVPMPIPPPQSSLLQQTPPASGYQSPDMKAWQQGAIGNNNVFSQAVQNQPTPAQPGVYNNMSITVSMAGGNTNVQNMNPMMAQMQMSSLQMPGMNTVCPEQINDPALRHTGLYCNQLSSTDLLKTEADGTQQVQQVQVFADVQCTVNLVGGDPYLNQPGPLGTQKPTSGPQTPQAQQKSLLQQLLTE

[8] = target: Peroxisome proliferator-activated receptor gamma/Nuclear receptor coactivator 2 (Homo sapiens, UniProt P37231); format: functional;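 note: agonist potency for raising coactivator recruitment to the receptor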
[9] = target: Peroxisome proliferator-activated receptor gamma/Nuclear receptor coactivator 3 (Homo sapiens, UniProt P37231); format: functional;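 note: agonist potency for raising coactivator recruitment to the receptor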

Acyl-homoserine lactone acylase PvdQ, sequence (Q9I194 24-193 limits assumed): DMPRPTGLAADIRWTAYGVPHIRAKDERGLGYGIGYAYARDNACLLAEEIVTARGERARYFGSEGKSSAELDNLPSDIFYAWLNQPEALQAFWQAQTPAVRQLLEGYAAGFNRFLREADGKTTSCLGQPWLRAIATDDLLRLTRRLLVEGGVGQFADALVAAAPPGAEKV
Acyl-homoserine lactone acylase PvdQ, sequence (Q9I194 217-762 limits assumed): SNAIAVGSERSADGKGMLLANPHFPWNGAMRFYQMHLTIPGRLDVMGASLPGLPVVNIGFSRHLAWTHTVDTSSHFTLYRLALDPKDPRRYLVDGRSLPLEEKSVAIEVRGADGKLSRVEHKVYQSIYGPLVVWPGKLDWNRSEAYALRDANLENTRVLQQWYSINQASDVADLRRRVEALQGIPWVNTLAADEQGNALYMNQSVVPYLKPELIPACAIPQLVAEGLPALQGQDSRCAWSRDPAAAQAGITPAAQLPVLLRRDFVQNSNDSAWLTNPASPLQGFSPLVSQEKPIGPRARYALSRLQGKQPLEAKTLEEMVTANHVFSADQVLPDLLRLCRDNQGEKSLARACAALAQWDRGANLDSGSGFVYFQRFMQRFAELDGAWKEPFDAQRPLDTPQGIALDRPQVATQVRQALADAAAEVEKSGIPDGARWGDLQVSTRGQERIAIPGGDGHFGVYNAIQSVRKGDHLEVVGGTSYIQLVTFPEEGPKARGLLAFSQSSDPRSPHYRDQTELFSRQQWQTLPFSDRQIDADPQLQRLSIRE

O=C1C2C(C(=O)N1Cc1ccco1)C1C=CC2C12CC2 (stereo unspecified)
AC50 [1]: 2.42 µM (active)

O=[N+]([O-])c1ccc(N2CCCCC2)cc1
AC50 [1]: 6.52 µM (active)

Cc1ccc(C(=O)ON=C(N)c2ccccn2)c(C)c1
EC50 [2]: < 0.16 µM (active)
IC50 (Tumor necrosis factor): 0.0706 µM (active)
AC50 [3]: 11.8 µM (active)
IC50 [4]: 0.772 µM (active)

CCc1cc2cc3c(cc2nc1SCC(=O)Nc1cc(C)on1)OCO3
IC50 [5]: 1.54 µM (active)
IC50 [6]: > 39.8 µM (not active)
EC50 [7]: > 79.4 µM (not active)
EC50 [8]: > 79.4 µM (not active)
EC50 [9]: > 79.4 µM (not active)
